Measurements from publication PMC11121358, “Redox Properties of Bacillus subtilis Ferredoxin:NADP^+ Oxidoreductase: Potentiometric Characteristics and Reactions with Pro-Oxidant Xenobiotics” (International Journal of Molecular Sciences, 2024).

Biological target: T1, Bacillus subtilis ferredoxin:NADP^+ oxidoreductase (BsFNR) (Bacillus subtilis, UniProt O05268)
T1 construct: gene yumC
Assay: steady-state product inhibition of NADPH:plumbagin reductase reaction
Type: biochemical

T1 sequence (O05268 whole entry): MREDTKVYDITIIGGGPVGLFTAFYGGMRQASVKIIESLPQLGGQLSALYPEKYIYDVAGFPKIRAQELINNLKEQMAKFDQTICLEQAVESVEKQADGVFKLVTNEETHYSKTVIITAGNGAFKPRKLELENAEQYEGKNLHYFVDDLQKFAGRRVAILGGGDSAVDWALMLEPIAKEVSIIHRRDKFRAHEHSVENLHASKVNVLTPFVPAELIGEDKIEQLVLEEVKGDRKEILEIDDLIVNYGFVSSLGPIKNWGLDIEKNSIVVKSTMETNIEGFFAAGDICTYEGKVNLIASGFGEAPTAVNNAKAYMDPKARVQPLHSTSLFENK

Ki: 62.6 ± 10.5 µM
SMILES: NC(=O)c1ccc[n+]([C@@H]2O[C@H](COP(=O)(O)OP(=O)(O)OC[C@H]3O[C@@H](n4cnc5c(N)ncnc54)[C@H](OP(=O)(O)O)[C@@H]3O)[C@@H](O)[C@H]2O)c1 [NADP^+]
